Test results: PMC9695642, “Conservation of Importin α Function in Apicomplexans: Ivermectin and GW5074 Target Plasmodium falciparum Importin α and Inhibit Parasite Growth in Culture” (International Journal of Molecular Sciences, 2022)
“And” between values parts separate entries of the source, which are not always exact repeats. Equal entries are not always repeated. Where two headings read alike, the source gives them in different places.

Experiments:
P. falciparum 3D7 strain = experiment: P. falciparum growth inhibition, HRP2-based sandwich ELISA; type: cell-based, Plasmodium falciparum
From the text: To test the potential antimalarial action of GW5074, we compared the activity of GW5074 to ivermectin against the asexual stages of P. falciparum parasites, using an established HRP2-based (histidine-rich protein 2) ELISA [38, 39, 40]. The assay uses a sandwich ELISA to measure HRP2 levels as an indicator of parasite growth; the clinically prescribed drug dihydroartemisinin (DHA) was used as a positive control.
Figure 6 Ivermectin and GW5074 inhibit P. falciparum parasites in culture at low µM concentrations. P. falciparum cultures (0.25% parasitemia) were treated with increasing concentrations of the indicated compounds for 72 h, after which the HRP2-based sandwich ELISA was used to measure the HRP2 levels, determined by optical density. The results shown are from a single typical experiment performed in duplicate (SD shown), representative of a series of three independent experiments (see Table 5 for pooled data).
P. falciparum 3D7 strain was cultured and maintained in human red blood cells (RBCs) using RPMI (Roswell Park Memorial Institute) 1640 medium supplemented with 0.5% Albumax (GibcoTM, Waltham, MA, USA), 50 mg/L hypoxanthine (Sigma-Aldrich, St. Louis, MO, USA), 2 g/L D-glucose (Sigma-Aldrich, St. Louis, MO, USA), 2 g/L sodium bicarbonate (Sigma-Aldrich, St. Louis, MO, USA), and 56 mg/L of gentamicin (Abbott, Chicago, IL, USA) at 37 °C in 5% CO2 in a humidified incubator, according to the standard procedures. Cultures presynchronised using 5% D-sorbitol (Sigma-Aldrich, St. Louis, MO, USA) to obtain predominantly the ring stage of the P. falciparum life cycle were used for the growth assays, as previously. DHA (a gift from IPCA Laboratories, Mumbai, India) was used as a control. Growth assays in the absence and presence of inhibitors were performed using the HRP2 sandwich horseradish peroxidase-linked immunosorbent assay that measures HRP2 levels as an indicator of growth.

PfIMPα [1] = biological target: T1, PfIMPα (Plasmodium falciparum, UniProt Q8IAW0); experiment: AlphaScreen inhibition of PfIMPα binding to TGS1-NLS-GFP
From the text: (§1) Inhibitors of mammalian IMPα function are of key interest as anti-infectious agents. One of the first described is the small molecule macrocyclic lactone ivermectin, produced by the bacterium Streptomyces avermitilis, that is approved by the US Food and Drug Administration for parasitic infections. […] Chemically distinct from ivermectin, GW5074 (3-(3,5-dibromo-4-hydroxybenzyliden)-5-iodo-1,3-dihydroindol-2-one) binds to mammalian IMPα with analogous structural effects on IMPα and inhibitory effects on NLS recognition/IMPβ1 binding by IMPα [24]. […] We set out to test the activity of these inhibitors with respect to NLS binding by PfIMPα and TgIMPα, with NLS binding by MmIMPα analysed in parallel (Figure 3; Table 3). As expected, ivermectin and GW5074 inhibited MmΔIBBIMPα-SV40 T-ag with IC50 values of 5–6 µM, consistent with published data. […] The results clearly indicate that chemical inhibitors known to target mammalian IMPα can inhibit apicomplexan IMPα, underlining the structural and functional conservation of IMPα from apicomplexans to mammalian systems.
(§2) Figure 3 Ivermectin and GW5074 inhibit IMPα-NLS interaction at low micromolar concentration. AlphaScreen technology was used to determine the IC50 for inhibition by ivermectin and GW5074 binding of IMPαs (5 nM) to NLS (30 nM). Data represent the mean ± SEM for quadruplet wells from a single experiment, from a series of 3 independent experiments (see Table 3 for pooled data).
(§3) PfIMPα, TgIMPα, MmIMPα, ΔIBBMmIMPα, and MmIMPβ1 GST fusion proteins were expressed and purified essentially as previously. His-tagged T-ag-NLS-GFP, TGS1-NLS-GFP, GCN5-NLS-GFP, PfIMPα, and TgIMPα proteins were all purified using Ni^2+-affinity chromatography, as previously. Biotinylation of GST-tagged proteins was carried out using the Sulfo-NHS-Biotin reagent (Pierce, Rockford, IL, USA), as described previously. The AlphaScreen binding assay was performed as previously.

TgIMPα = TgIMPα (Toxoplasma gondii, UniProt A0A125YID0); experiment: AlphaScreen inhibition of TgIMPα binding to T-ag-NLS-GFP
From the text: as §1, §2, §3

MmΔIBBIMPα = biological target: T2, MmΔIBBIMPα (Mus musculus, UniProt P52293); experiment: AlphaScreen inhibition of MmΔIBBIMPα binding to T-ag-NLS-GFP
T2 construct: GST; made in house
From the text: as §1, §2, §3

PfIMPα:MmIMPβ1 = PfIMPα:MmIMPβ1 (Plasmodium falciparum, UniProt Q8IAW0); experiment: AlphaScreen inhibition of PfIMPα binding to MmIMPβ1
From the text: (§4) As indicated, both ivermectin and GW5074 have been previously shown to inhibit interaction between mammalian IMPα and IMPβ1 [24, 32]. We tested their activity towards apicomplexan IMPα (Figure 4; Table 4). As previously observed, binding of MmIMPα:MmIMPβ1 was inhibited strongly by both agents, with IC50 values of c. […] Clearly, ivermectin and GW5074 are able to act on apicomplexan IMPα in analogous fashion to MmIMPα in terms of the ability to bind to IMPβ1, the results further underlining the structural and functional conservation of IMPα from apicomplexans to mammalian systems.
(§5) Figure 4 Ivermectin and GW5074 inhibit IMPα–IMPβ interaction. AlphaScreen technology was used to determine the IC50 for inhibition by ivermectin and GW5074-binding of IMPβ (30 nM) to IMPαs (30 nM). Data represent the mean ± SEM for quadruplet wells from a single experiment, from a series of three independent experiments (see Table 4 for pooled data).
as §3

TgIMPα:MmIMPβ1 = TgIMPα:MmIMPβ1 (Toxoplasma gondii, UniProt A0A125YID0); experiment: AlphaScreen inhibition of TgIMPα binding to MmIMPβ1
From the text: as §4, §5, §3

MmIMPα:MmIMPβ1 = biological target: T3, MmIMPα:MmIMPβ1 (Mus musculus, UniProt P52293); experiment: AlphaScreen inhibition of MmIMPα binding to MmIMPβ1
T3 construct: His; made in house
From the text: as §4, §5, §3

PfIMPα [2] = biological target: T1, PfIMPα; experiment: Far-UV CD spectroscopy, α-helical content of PfIMPα with compound; type: binding; details: PfIMPα alone c. 63 % α-helical
Experimental: Previous analysis for MmIMPα using several biophysical approaches had established that the mechanism by which both ivermectin and GW5074 have an impact on NLS and IMPβ1 binding by MmIMPα is by direct binding to the ARM repeat domain of IMPα to perturb structural conformation. […] 63 % α-helical, compared to c. 70 % for MmIMPα (Figure 5b).
CD spectra were also analysed in the presence of increasing concentrations of ivermectin and GW5074, with both agents having a marked impact on the structure, especially at high concentrations (Figure 5a,b), consistent with the idea that both bind to the proteins directly to perturb structure. PfIMPα appeared to be particularly susceptible to both agents, with 30 µM GW5074 reducing α-helicity by more than a half (Figure 5a,b) to a residual value of 30%, which fell below 10% in the presence of 80 µM GW5074. […] 20% at 80 µM. The results, overall, indicate that both ivermectin and GW5074 can bind to and destabilise the structure of both PfIMPα and TgIMPα in analogous fashion to their known effects on mammalian IMPα, further underlining the conservation of structure and function between apicomplexan and mammalian IMPαs.
Figure 5 CD spectra for apicomplexan and mammalian IMPαs in the absence and presence of ivermectin and GW5074. CD spectra were collected for PfIMPα, TgIMPα, and MmIMPα in the absence or presence of 30 μM and 80 μM ivermectin and GW5074. (a) Spectra shown are from a single experiment, representative of two independent experiments for 30 μM concentration of ivermectin and GW5074. Note: θ is ellipticity. […]
CD spectroscopy was used to study the binding of ivermectin and GW5074 to PfIMPα, TgIMPα and MmIMPα, as previously described. CD spectra of the proteins at 0.1 mg/mL concentration were recorded from 200–260 nm using Jasco CD spectrometer (Jasco, Portland, OR, USA). CD spectra of the IMPαs were also measured in the presence of 30 µM and 80 µM concentrations of the ivermectin and GW5074 compounds. Percentage α-helix content was calculated from the ellipticity at 222 nm as described in [51]. […]

[3] = Plasmodium falciparum, 3D7, 72 h, 72 h, single typical experiment in duplicate, read-out: IC50, P. falciparum growth (Figure 6)
[4] = Plasmodium falciparum, 3D7, 72 h, asexual stages, 72 h, pooled mean ± SD (n = 3), read-out: IC50, inhibition of growth of P. falciparum parasites in culture
[5] = AlphaScreen, IMPα 5 nM, NLS 30 nM, pooled mean ± SEM (n = 3), read-out: IC50, inhibition of PfIMPα:TGS1 NLS binding
[6] = single experiment of a series of 3, read-out: IC50, PfIMPα:TGS1-NLS-GFP (Figure 3)
[7] = AlphaScreen, IMPα 5 nM, NLS 30 nM, pooled mean ± SEM (n = 3), read-out: IC50, inhibition of TgIMPα:SV40 T-ag NLS binding
[8] = single experiment of a series of 3, read-out: IC50, TgIMPα:T-ag-NLS-GFP (Figure 3)
[9] = AlphaScreen, IMPα 5 nM, NLS 30 nM, pooled mean ± SEM (n = 3), read-out: IC50, inhibition of ΔIBBmIMPα:SV40 T-ag NLS binding
[10] = single experiment of a series of 3, read-out: IC50, MmΔIBBIMPα:T-ag-NLS-GFP (Figure 3)
[11] = AlphaScreen, IMPβ 30 nM, IMPα 30 nM, pooled mean ± SEM (n = 3), read-out: IC50, inhibition of PfIMPα:MmIMPβ1 binding
[12] = single experiment of a series of three, read-out: IC50, PfIMPα:MmIMPβ1 (Figure 4)
[13] = AlphaScreen, IMPβ 30 nM, IMPα 30 nM, pooled mean ± SEM (n = 3), read-out: IC50, inhibition of TgIMPα:MmIMPβ1 binding
[14] = single experiment of a series of three, read-out: IC50, TgIMPα:MmIMPβ1 (Figure 4)
[15] = AlphaScreen, IMPβ 30 nM, IMPα 30 nM, pooled mean ± SEM (n = 3), read-out: IC50, inhibition of MmIMPα:MmIMPβ1 binding
[16] = single experiment of a series of three, read-out: IC50, MmIMPα:MmIMPβ1 (Figure 4)
[17] = asexual stages, 72 h, pooled mean ± SD (n = 3), read-out: IC50, inhibition of growth of P. falciparum parasites in culture

| Compound | IC50 (P. falciparum 3D7 strain; [3]) [µM] | IC50 (P. falciparum 3D7 strain; [4]) [µM] | IC50 (PfIMPα [1]; [5]) [µM] | IC50 (PfIMPα [1]; [6]) [µM] | IC50 (TgIMPα; [7]) [µM] | IC50 (TgIMPα; [8]) [µM] | IC50 (MmΔIBBIMPα; [9]) [µM] | IC50 (MmΔIBBIMPα; [10]) [µM] | IC50 (PfIMPα:MmIMPβ1; [11]) [µM] | IC50 (PfIMPα:MmIMPβ1; [12]) [µM] | IC50 (TgIMPα:MmIMPβ1; [13]) [µM] | IC50 (TgIMPα:MmIMPβ1; [14]) [µM] | IC50 (MmIMPα:MmIMPβ1; [15]) | IC50 (MmIMPα:MmIMPβ1; [16]) [µM] | residual α-helicity of PfIMPα (PfIMPα [2]; 80 µM compound) | IC50 (P. falciparum 3D7 strain; [17]) [µM] | also measured |
| --- | --- | --- | --- | --- | --- | --- | --- | --- | --- | --- | --- | --- | --- | --- | --- | --- | --- |
| C[C@H]1[C@@H](O)O[C@@H]2O[C@@]3(C)CC[C@H]4[C@H](C)CC[C@@H]1[C@@]24OO3 [DHA, dihydroartemisinin] | 0.0007 | 0.001 ± 0.0005 |  |  |  |  |  |  |  |  |  |  |  |  |  |  | IC50 (P. falciparum 3D7 strain; Plasmodium falciparum, 3D7, asexual stages, approximate value, read-out: IC50, P. falciparum growth): ~0.001 µM |
| ivermectin |  |  | 5 ± 1.3 | 2.4 | 4.9 ± 0.2 | 5.2 | 6.2 ± 0.2 | 6.3 | 1.9 ± 0.2 | 1.5 | 6.9 ± 1.2 | 5.4 | 3.1 ± 0.5 µM | 3.9 | ~20% | 0.7 ± 0.1 | IC50 (TgIMPα; AlphaScreen, IMPα 5 nM, NLS 30 nM, pooled mean ± SEM (n = 3), listed as ivermectin, read-out: IC50, inhibition of TgIMPα:SV40 T-ag NLS binding): 5 µM; IC50 (MmΔIBBIMPα; AlphaScreen, IMPα 5 nM, NLS 30 nM, pooled mean ± SEM (n = 3), listed as ivermectin, read-out: IC50, inhibition of ΔIBBmIMPα:SV40 T-ag NLS binding): 5 to 6 µM; IC50 (PfIMPα:MmIMPβ1; AlphaScreen, IMPβ 30 nM, IMPα 30 nM, pooled mean ± SEM (n = 3), listed as ivermectin, read-out: IC50, inhibition of PfIMPα:MmIMPβ1 binding): 2 to 7 µM; IC50 (TgIMPα:MmIMPβ1; AlphaScreen, IMPβ 30 nM, IMPα 30 nM, pooled mean ± SEM (n = 3), listed as ivermectin, read-out: IC50, inhibition of TgIMPα:MmIMPβ1 binding): 2 to 7 µM; IC50 (MmIMPα:MmIMPβ1; AlphaScreen, IMPβ 30 nM, IMPα 30 nM, pooled mean ± SEM (n = 3), listed as ivermectin, read-out: IC50, inhibition of MmIMPα:MmIMPβ1 binding): ~3 µM; IC50 (P. falciparum 3D7 strain; 72 h, single typical experiment in duplicate, read-out: IC50, P. falciparum growth (Figure 6)): 1 µM; IC50 (P. falciparum 3D7 strain; asexual stages, 72 h, pooled mean ± SD (n = 3), listed as ivermectin, read-out: IC50, inhibition of growth of P. falciparum parasites in culture): ~1 µM |
| O=C1Nc2ccc(I)cc2C1=Cc1cc(Br)c(O)c(Br)c1 [GW5074, 3-(3,5-dibromo-4-hydroxybenzyliden)-5-iodo-1,3-dihydroindol-2-one] | 6.5 | ~6 | 6.5 ± 0.4 | 6 | 7.7 ± 1.9 | 5.4 | 4.9 ± 1.4 | 2.2 | 41 ± 1.5 | 39 | 11 ± 1.5 | 13 | ~22 µM and 22 µM | 23 | below 10% | 5.5 ± 0.9 | residual α-helicity of PfIMPα (PfIMPα [2]; 30 µM compound): 30% |
